Measurements taken from patent US10004701B2, “Methods and compositions for treating infection” (UNIVERSITY OF ROCHESTER, priority 2012, dated 2018).
Structures can show the parent of a compound that is named as a salt. Where two headings read alike, the source gives them in different places.

Experiments:
Assay in all cases: AK assay 384-well format, Prestwick library screening
[1] = system: A. baumannii strain 98-37-09; type: cell-based, Acinetobacter baumannii; conditions: 50 μM final drug concentration; for fold induction at 50 µM: Acinetobacter baumannii, 983709, 3 h
E. coli = type: cell-based, Escherichia coli; conditions: 50 μM final drug concentration; for fold induction at 50 µM: Escherichia coli, 3 h
E. cloacae = type: cell-based, Enterobacter cloacae; conditions: 50 μM final drug concentration; for fold induction at 50 µM: Enterobacter cloacae, 3 h
[2] = system: S. aureus strain USA300-0114; type: cell-based, Staphylococcus aureus; conditions: 50 μM final drug concentration; for fold induction at 50 µM: Staphylococcus aureus, USA300, 3 h
P. aeruginosa = type: cell-based, Pseudomonas aeruginosa; conditions: 50 μM final drug concentration; for fold induction at 50 µM: Pseudomonas aeruginosa, 3 h
K. pneumoniae = type: cell-based, Klebsiella pneumoniae; conditions: 50 μM final drug concentration; for fold induction at 50 µM: Klebsiella pneumoniae, 3 h
E. faecium = type: cell-based, Enterococcus faecium; conditions: 50 μM final drug concentration; for fold induction at 50 µM: Enterococcus faecium, 3 h

## Fc1ccc(C(OCCN2CCN(CCCc3ccccc3)CC2)c2ccc(F)cc2)cc1 [GBR 12909 dihydrochloride]
[1]; planktonic, cutoff for positive 3-fold increase, read-out: AK-based Prestwick Library Screening Results, A. baumannii (fold increase in extracellular AK activity)
  fold induction at 50 µM: 2.2
E. coli; planktonic, cutoff for positive 3-fold increase, read-out: AK-based Prestwick Library Screening Results, E. coli (fold increase in extracellular AK activity)
  fold induction at 50 µM: 1.4
E. cloacae; planktonic, cutoff for positive 3-fold increase, read-out: AK-based Prestwick Library Screening Results, E. cloacae (fold increase in extracellular AK activity)
  fold induction at 50 µM: 1.5
[2]; planktonic, cutoff for positive 3-fold increase, read-out: AK-based Prestwick Library Screening Results, S. aureus (fold increase in extracellular AK activity)
  fold induction at 50 µM: 1.5
P. aeruginosa; planktonic, cutoff for positive 3-fold increase, read-out: AK-based Prestwick Library Screening Results, P. aeruginosa (fold increase in extracellular AK activity)
  fold induction at 50 µM: 1.2
K. pneumoniae; planktonic, cutoff for positive 3-fold increase, read-out: AK-based Prestwick Library Screening Results, K. pneumoniae (fold increase in extracellular AK activity)
  fold induction at 50 µM: 1
E. faecium; planktonic, cutoff for positive 3-fold increase, read-out: AK-based Prestwick Library Screening Results, E. faecium (fold increase in extracellular AK activity)
  fold induction at 50 µM: 1.3

## NCC1(CC(=O)O)CCCCC1 [Gabapentin]
[1]; […], read-out: AK-based Prestwick Library Screening Results, A. baumannii (fold increase in extracellular AK activity)
  fold induction at 50 µM: 1.4
E. coli; […], read-out: AK-based Prestwick Library Screening Results, E. coli (fold increase in extracellular AK activity)
  fold induction at 50 µM: 1.4
E. cloacae; […], read-out: AK-based Prestwick Library Screening Results, E. cloacae (fold increase in extracellular AK activity)
  fold induction at 50 µM: 1.6
[2]; […], read-out: AK-based Prestwick Library Screening Results, S. aureus (fold increase in extracellular AK activity)
  fold induction at 50 µM: 1.5
P. aeruginosa; […], read-out: AK-based Prestwick Library Screening Results, P. aeruginosa (fold increase in extracellular AK activity)
  fold induction at 50 µM: 1.3
K. pneumoniae; […], read-out: AK-based Prestwick Library Screening Results, K. pneumoniae (fold increase in extracellular AK activity)
  fold induction at 50 µM: 1.1
E. faecium; […], read-out: AK-based Prestwick Library Screening Results, E. faecium (fold increase in extracellular AK activity)
  fold induction at 50 µM: 1

## COc1ccc(-c2ccc(=N)n(CCCC(=O)O)n2)cc1 [Gabazine]
[1]; planktonic A. baumannii, cutoff for positive-scoring molecules 3-fold increase, read-out: AK-based Prestwick Library Screening Results, A. baumannii (increase in extracellular AK activity)
  fold induction at 50 µM: 1.1
E. coli; planktonic E. coli, cutoff for positive-scoring molecules 3-fold increase, read-out: AK-based Prestwick Library Screening Results, E. coli (increase in extracellular AK activity)
  fold induction at 50 µM: 1
E. cloacae; planktonic E. cloacae, cutoff for positive-scoring molecules 3-fold increase, read-out: AK-based Prestwick Library Screening Results, E. cloacae (increase in extracellular AK activity)
  fold induction at 50 µM: 1.3
[2]; planktonic S. aureus, cutoff for positive-scoring molecules 3-fold increase, read-out: AK-based Prestwick Library Screening Results, S. aureus (increase in extracellular AK activity)
  fold induction at 50 µM: 1.1
P. aeruginosa; planktonic P. aeruginosa, cutoff for positive-scoring molecules 3-fold increase, read-out: AK-based Prestwick Library Screening Results, P. aeruginosa (increase in extracellular AK activity)
  fold induction at 50 µM: 1
K. pneumoniae; planktonic K. pneumoniae, cutoff for positive-scoring molecules 3-fold increase, read-out: AK-based Prestwick Library Screening Results, K. pneumoniae (increase in extracellular AK activity)
  fold induction at 50 µM: 0.8
E. faecium; planktonic E. faecium, cutoff for positive-scoring molecules 3-fold increase, read-out: AK-based Prestwick Library Screening Results, E. faecium (increase in extracellular AK activity)
  fold induction at 50 µM: 1.1

## CCOC(=O)c1ccc(OC(=O)CCCCCN=C(N)N)cc1.CS(=O)(=O)O [Gabexate mesilate]
[1]; planktonic A. baumannii, positive cutoff 3-fold increase
  AK-based Prestwick library screening result, A. baumannii (fold increase in extracellular AK activity): 1.1
E. coli; planktonic E. coli, positive cutoff 3-fold increase
  AK-based Prestwick library screening result, E. coli (fold increase in extracellular AK activity): 1.1
E. cloacae; planktonic E. cloacae, positive cutoff 3-fold increase
  AK-based Prestwick library screening result, E. cloacae (fold increase in extracellular AK activity): 1.4
[2]; planktonic S. aureus, positive cutoff 3-fold increase
  AK-based Prestwick library screening result, S. aureus (fold increase in extracellular AK activity): 1.3
P. aeruginosa; planktonic P. aeruginosa, positive cutoff 3-fold increase
  AK-based Prestwick library screening result, P. aeruginosa (fold increase in extracellular AK activity): 1.1
K. pneumoniae; planktonic K. pneumoniae, positive cutoff 3-fold increase
  AK-based Prestwick library screening result, K. pneumoniae (fold increase in extracellular AK activity): 0.9
E. faecium; planktonic E. faecium, positive cutoff 3-fold increase
  AK-based Prestwick library screening result, E. faecium (fold increase in extracellular AK activity): 1.1

## COc1ccc2c3c1O[C@H]1C[C@@H](O)C=C[C@@]31CCN(C)C2 [Galanthamine hydrobromide]
[1]; planktonic A. baumannii, […], read-out: AK-based Prestwick Library Screening Results, A. baumannii (increase in extracellular AK activity)
  fold induction at 50 µM: 0.8
E. coli; planktonic E. coli, […], read-out: AK-based Prestwick Library Screening Results, E. coli (increase in extracellular AK activity)
  fold induction at 50 µM: 0.9
E. cloacae; planktonic E. cloacae, […], read-out: AK-based Prestwick Library Screening Results, E. cloacae (increase in extracellular AK activity)
  fold induction at 50 µM: 1
[2]; planktonic S. aureus, […], read-out: AK-based Prestwick Library Screening Results, S. aureus (increase in extracellular AK activity)
  fold induction at 50 µM: 0.8
P. aeruginosa; planktonic P. aeruginosa, […], read-out: AK-based Prestwick Library Screening Results, P. aeruginosa (increase in extracellular AK activity)
  fold induction at 50 µM: 0.8
K. pneumoniae; planktonic K. pneumoniae, […], read-out: AK-based Prestwick Library Screening Results, K. pneumoniae (increase in extracellular AK activity)
  fold induction at 50 µM: 0.8
E. faecium; planktonic E. faecium, […], read-out: AK-based Prestwick Library Screening Results, E. faecium (increase in extracellular AK activity)
  fold induction at 50 µM: 0.9

## CC[N+](CC)(CC)CCOc1cccc(OCC[N+](CC)(CC)CC)c1OCC[N+](CC)(CC)CC [Gallamine triethiodide]
[1]; planktonic A. baumannii, 384-well, cutoff for positive-scoring molecules 3-fold increase, read-out: AK-based Prestwick Library Screening Results: A. baumannii (increase in extracellular AK activity)
  fold induction at 50 µM: 1.2
E. coli; planktonic E. coli, 384-well, cutoff for positive-scoring molecules 3-fold increase, read-out: AK-based Prestwick Library Screening Results: E. coli (increase in extracellular AK activity)
  fold induction at 50 µM: 1.3
E. cloacae; planktonic E. cloacae, 384-well, cutoff for positive-scoring molecules 3-fold increase, read-out: AK-based Prestwick Library Screening Results: E. cloacae (increase in extracellular AK activity)
  fold induction at 50 µM: 1.5
[2]; planktonic S. aureus, 384-well, cutoff for positive-scoring molecules 3-fold increase, read-out: AK-based Prestwick Library Screening Results: S. aureus (increase in extracellular AK activity)
  fold induction at 50 µM: 1.1
P. aeruginosa; planktonic P. aeruginosa, 384-well, cutoff for positive-scoring molecules 3-fold increase, read-out: AK-based Prestwick Library Screening Results: P. aeruginosa (increase in extracellular AK activity)
  fold induction at 50 µM: 1
K. pneumoniae; planktonic K. pneumoniae, 384-well, cutoff for positive-scoring molecules 3-fold increase, read-out: AK-based Prestwick Library Screening Results: K. pneumoniae (increase in extracellular AK activity)
  fold induction at 50 µM: 1.1
E. faecium; planktonic E. faecium, 384-well, cutoff for positive-scoring molecules 3-fold increase, read-out: AK-based Prestwick Library Screening Results: E. faecium (increase in extracellular AK activity)
  fold induction at 50 µM: 1

## Nc1nc(O)c2ncn(COC(CO)CO)c2n1 [Ganciclovir]
[1]; planktonic, cutoff for positive-scoring molecules 3-fold increase, read-out: AK-based Prestwick Library Screening Results, A. baumannii (fold increase in extracellular AK activity)
  fold induction at 50 µM: 0.8
E. coli; planktonic, cutoff for positive-scoring molecules 3-fold increase, read-out: AK-based Prestwick Library Screening Results, E. coli (fold increase in extracellular AK activity)
  fold induction at 50 µM: 0.9
E. cloacae; planktonic, cutoff for positive-scoring molecules 3-fold increase, read-out: AK-based Prestwick Library Screening Results, E. cloacae (fold increase in extracellular AK activity)
  fold induction at 50 µM: 1.4
[2]; planktonic, cutoff for positive-scoring molecules 3-fold increase, read-out: AK-based Prestwick Library Screening Results, S. aureus (fold increase in extracellular AK activity)
  fold induction at 50 µM: 0.9
P. aeruginosa; planktonic, cutoff for positive-scoring molecules 3-fold increase, read-out: AK-based Prestwick Library Screening Results, P. aeruginosa (fold increase in extracellular AK activity)
  fold induction at 50 µM: 0.9
K. pneumoniae; planktonic, cutoff for positive-scoring molecules 3-fold increase, read-out: AK-based Prestwick Library Screening Results, K. pneumoniae (fold increase in extracellular AK activity)
  fold induction at 50 µM: 0.7
E. faecium; planktonic, cutoff for positive-scoring molecules 3-fold increase, read-out: AK-based Prestwick Library Screening Results, E. faecium (fold increase in extracellular AK activity)
  fold induction at 50 µM: 0.9

## C=C[C@]12CN(C)[C@@H]3[C@H]4CO[C@H](C[C@H]41)[C@]1(C(=O)Nc4ccccc41)[C@@H]32 [Gelsemine]
[1]; planktonic, […], read-out: AK-based Prestwick Library Screening Results, A. baumannii (fold increase in extracellular AK activity)
  fold induction at 50 µM: 0.7
E. coli; planktonic, […], read-out: AK-based Prestwick Library Screening Results, E. coli (fold increase in extracellular AK activity)
  fold induction at 50 µM: 0.9
E. cloacae; planktonic, […], read-out: AK-based Prestwick Library Screening Results, E. cloacae (fold increase in extracellular AK activity)
  fold induction at 50 µM: 0.9
[2]; planktonic, […], read-out: AK-based Prestwick Library Screening Results, S. aureus (fold increase in extracellular AK activity)
  fold induction at 50 µM: 0.7
P. aeruginosa; planktonic, […], read-out: AK-based Prestwick Library Screening Results, P. aeruginosa (fold increase in extracellular AK activity)
  fold induction at 50 µM: 0.9
K. pneumoniae; planktonic, […], read-out: AK-based Prestwick Library Screening Results, K. pneumoniae (fold increase in extracellular AK activity)
  fold induction at 50 µM: 0.7
E. faecium; planktonic, […], read-out: AK-based Prestwick Library Screening Results, E. faecium (fold increase in extracellular AK activity)
  fold induction at 50 µM: 0.9
